From patent publication US20250025443A1, “COMPOUNDS AND METHODS FOR TREATING CORONA VIRUSES” (CLEAR CREEK BIO, INC., priority 2021, published 2025)
Like-named read-outs stand apart in the source and are kept apart here.

Target: SARS-CoV-2 Papain-Like Protease (PLpro) (Severe acute respiratory syndrome coronavirus 2 (2019-nCoV) (SARS-CoV-2), UniProt P0DTD1)
Assay: biochemical
[1] = PLpro enzymatic fluorescence assay, class symbols, read-out: PLpro IC50
[2] = SARS-CoV-2 PLpro enzymatic fluorescence assay, read-out: PLpro IC50

COc1cc(C2(NC(=O)c3cc(OC[C@@H]4CCN4C)ccc3C)COC2)c2ccccc2c1 [Compound 566]
IC50 [1]: < 100 nM

COc1cc(C2(NC(=O)c3cc(OC[C@@H]4CCN4CCF)ccc3C)CC2)c2cccnc2c1 [Compound 567, (S)-5-((1-(2-Fluoroethyl)azetidin-2-yl)methoxy)-N-(1-(7-methoxyquinolin-5-yl)cyclopropyl)-2-methylbenzamide]
IC50 [1]: < 100 nM

C=C(C)c1cc(C2(NC(=O)c3cc(OC[C@@H]4CCN4C)ccc3C)CC2)c2cccnc2c1 [Compound 568, (S)-2-Methyl-5-((1-methylazetidin-2-yl)methoxy)-N-(1-(7-(prop-1-en-2-yl)quinolin-5-yl)cyclopropyl)benzamide]
IC50 [2]: < 100 nM

Cc1ccc(OC[C@@H]2CCN2C)cc1C(=O)NC1(c2cc3ccccc3c3ccccc23)CC1 [Compound 569, (S)-2-Methyl-5-((1-methylazetidin-2-yl)methoxy)-N-(1-(phenanthren-9-yl)cyclopropyl)benzamide]
IC50 (PLpro IC50, PLpro enzymatic fluorescence assay, class symbols): > 5000 nM

C=Cc1cc(C2(NC(=O)c3cc(OC[C@@H]4CCN4C)ccc3C)CC2)c2cccnc2c1 [Compound 570, (S)-2-Methyl-5-((1-methylazetidin-2-yl)methoxy)-N-(1-(7-vinylquinolin-5-yl)cyclopropyl)benzamide]
IC50 [1]: < 100 nM

COc1cc(C2(NC(=O)c3cc(OCCN(C)CCF)ccc3C)CC2)c2cccnc2c1 [Compound 571, 5-(2-((2-Fluoroethyl)(methyl)amino)ethoxy)-N-(1-(7-methoxyquinolin-5-yl)cyclopropyl)-2-methylbenzamide]
IC50 [1]: < 100 nM

COc1cc(C2(NC(=O)c3cc(OCC(N)C(C)C)ccc3C)CC2)c2cccnc2c1 (centres unmarked) [Compound 572, 5-(2-Amino-3-methylbutoxy)-N-(1-(7-methoxyquinolin-5-yl)cyclopropyl)-2-methylbenzamide]
IC50 [1]: < 100 nM

CN[C@H](C)COc1ccc(C)c(C(=O)NC2(c3cc(OC)cc4ncccc34)CC2)c1 [Compound 573, (R)-N-(1-(7-Methoxyquinolin-5-yl)cyclopropyl)-2-methyl-5-(2-(methylamino)propoxy)benzamide]
IC50 [1]: < 100 nM

Cc1ccc(OCCN(C)C)cc1NC(=O)C(C)c1cccc2ccccc12 (centres unmarked) [Compound 577, N-(5-(2-(Dimethylamino)ethoxy)-2-methylphenyl)-2-(naphthalen-1-yl)propanamide]
IC50 [2]: > 5000 nM

Cc1ccc(OC[C@@H]2CCN2C)cc1C(=O)NC1(c2cc(-c3ccnn3C)cc3ncccc23)CC1 [Compound 578, (S)-2-Methyl-N-(1-(7-(1-methyl-1H-pyrazol-5-yl)quinolin-5-yl)cyclopropyl)-5-((1-methylazetidin-2-yl)methoxy)benzamide]
IC50 [1]: < 100 nM

Cc1ccc(OC[C@@H]2CCN2C)cc1C(=O)NC1(c2cc(OC(F)(F)F)cc3ncccc23)CC1 [Compound 579, (S)-2-Methyl-5-((1-methylazetidin-2-yl)methoxy)-N-(1-(7-(trifluoromethoxy)quinolin-5-yl)cyclopropyl)benzamide]
IC50 [1]: < 100 nM

Cc1ccc(OCCN(C)C)cc1NC(=O)C1(c2cccc3ccccc23)CC1 [Compound 580, N-(5-(2-(Dimethylamino)ethoxy)-2-methylphenyl)-1-(naphthalen-1-yl)cyclopropane-1-carboxamide]
IC50 [2]: > 5000 nM

Cc1cc(C2(NC(=O)c3cc(OC[C@@H]4CCN4C)ccc3C)CC2)c2cccnc2c1 [Compound 581, (S)-2-Methyl-5-((1-methylazetidin-2-yl)methoxy)-N-(1-(7-methylquinolin-5-yl)cyclopropyl)benzamide]
IC50 [2]: < 100 nM

Cc1ccc(OC[C@@H]2CCN2C)cc1C(=O)NC1(c2cc(-c3ccn(C)n3)cc3ncccc23)CC1 [Compound 582, (S)-2-Methyl-N-(1-(7-(1-methyl-1H-pyrazol-3-yl)quinolin-5-yl)cyclopropyl)-5-((1-methylazetidin-2-yl)methoxy)benzamide]
IC50 [1]: < 100 nM

COc1cc(C2(NC(=O)c3cc(Oc4ccncc4)ccc3C)CC2)c2cccnc2c1 [Compound 584, N-(1-(7-Methoxyquinolin-5-yl)cyclopropyl)-2-methyl-5-(pyridin-4-yloxy)benzamide]
IC50 [2]: 100 to 1000 nM

Cc1ccc(OC[C@@H]2CCN2C)cc1C(=O)NC1(c2cc(Cl)nc3cc(F)ccc23)CC1 [Compound 586, (S)-N-(1-(2-Chloro-7-fluoroquinolin-4-yl)cyclopropyl)-2-methyl-5-((1-methylazetidin-2-yl)methoxy)benzamide]
IC50 [2]: < 100 nM

Cc1ccc(OC[C@@H]2CCN2C)cc1C(=O)NC1(c2cc(OC(C)C)cc3ncccc23)CC1 [Compound 587, (S)-N-(1-(7-Isopropoxyquinolin-5-yl)cyclopropyl)-2-methyl-5-((1-methylazetidin-2-yl)methoxy)benzamide]
IC50 [2]: < 100 nM

Cc1ccc(OC[C@@H]2CCN2C)cc1C(=O)NC1(c2cc(-c3nccs3)cc3ncccc23)CC1 [Compound 590, (S)-2-Methyl-5-((1-methylazetidin-2-yl)methoxy)-N-(1-(7-(thiazol-2-yl)quinolin-5-yl)cyclopropyl)benzamide]
IC50 [1]: < 100 nM

COCCOc1cc(C2(NC(=O)c3cc(OC[C@@H]4CCN4C)ccc3C)CC2)c2cccnc2c1 [Compound 591, (S)-N-(1-(7-(2-Methoxyethoxy)quinolin-5-yl)cyclopropyl)-2-methyl-5-((1-methylazetidin-2-yl)methoxy)benzamide]
IC50 [1]: < 100 nM

Cc1ccc(OC[C@@H]2CCN2C)cc1C(=O)NC1(c2cc(Oc3ccccc3)cc3ncccc23)CC1 [Compound 592, (S)-2-Methyl-5-((1-methylazetidin-2-yl)methoxy)-N-(1-(7-phenoxyquinolin-5-yl)cyclopropyl)benzamide]
IC50 [1]: < 100 nM

COc1cc(C(C)N2CCC(C(=O)NCc3cccc(F)c3)CC2)c2cccnc2c1 (centres unmarked) [Compound 593, N-(3-Fluorobenzyl)-1-(1-(7-methoxyquinolin-5-yl)ethyl)piperidine-4-carboxamide]
IC50 [1]: 1000 to 5000 nM

Cc1ccc(OC[C@@H]2CCN2C)cc1C(=O)NC1(c2cc(-c3ccccc3)cc3ncccc23)CC1 [Compound 594, (S)-2-Methyl-5-((1-methylazetidin-2-yl)methoxy)-N-(1-(7-phenylquinolin-5-yl)cyclopropyl)benzamide]
IC50 [1]: < 100 nM

COc1cc(C2(NC(=O)c3cc(OC[C@@]45CCCN4C[C@H](F)C5)ccc3C)CC2)c2cccnc2c1 [Compound 596, 5-(((2R,7aS)-2-Fluorohexahydro-1H-pyrrolizin-7a-yl)methoxy)-N-(1-(7-methoxyquinolin-5-yl)cyclopropyl)-2-methylbenzamide]
IC50 [1]: < 100 nM

COc1cc(C2(NC(=O)c3cc(OC[C@@H]4CCN4C)c(N)cc3C)CC2)c2cccnc2c1 [Compound 597, (S)-4-Amino-N-(1-(7-methoxyquinolin-5-yl)cyclopropyl)-2-methyl-5-((1-methylazetidin-2-yl)methoxy)benzamide]
IC50 [2]: < 100 nM

Cc1ccc(OC[C@@H]2CCN2C)cc1C(=O)NC1(c2cc(OCc3ccccc3)cc3ncccc23)CC1 [Compound 598, (S)-N-(1-(7-(Benzyloxy)quinolin-5-yl)cyclopropyl)-2-methyl-5-((1-methylazetidin-2-yl)methoxy)benzamide]
IC50 [2]: < 100 nM

CC(c1cc(-c2cccs2)cc2ccccc12)N1CCC(C(=O)NCc2cccc(F)c2)CC1 (centres unmarked) [Compound 599, N-(3-Fluorobenzyl)-1-(1-(3-(thiophen-2-yl)naphthalen-1-yl)ethyl)piperidine-4-carboxamide]
IC50 [1]: 1000 to 5000 nM

Cc1ccc(OC[C@@H]2CCN2C)cc1C(=O)NC1(c2cc(C(F)(F)F)cc3ncccc23)CC1 [Compound 600, (S)-2-Methyl-5-((1-methylazetidin-2-yl)methoxy)-N-(1-(7-(trifluoromethyl)quinolin-5-yl)cyclopropyl)benzamide]
IC50 [2]: < 100 nM

CC(C)=Cc1cc(C2(NC(=O)c3cc(OC[C@@H]4CCN4C)ccc3C)CC2)c2cccnc2c1 [Compound 603, (S)-2-Methyl-5-((1-methylazetidin-2-yl)methoxy)-N-(1-(7-(2-methylprop-1-en-1-yl)quinolin-5-yl)cyclopropyl)benzamide]
IC50 [1]: < 100 nM

Cc1ccc(OC[C@@H]2CCN2)cc1C(=O)NC1(c2cc(-c3cccs3)cc3ncccc23)CC1 [Compound 608, (S)-5-(Azetidin-2-ylmethoxy)-2-methyl-N-(1-(7-(thiophen-2-yl)quinolin-5-yl)cyclopropyl)benzamide]
IC50 [1]: < 100 nM

Cc1ccc(OC[C@@H]2CCN2C)cc1C(=O)NC1(c2cc(C3=CCCC3)cc3ncccc23)CC1 [Compound 609, (S)-N-(1-(7-(Cyclopent-1-en-1-yl)quinolin-5-yl)cyclopropyl)-2-methyl-5-((1-methylazetidin-2-yl)methoxy)benzamide]
IC50 [1]: < 100 nM

Cc1ccc(OC[C@@H]2CCN2C)cc1C(=O)NC1(c2cc(N(C)C)nc3cc(F)ccc23)CC1 [Compound 611, (S)-N-(1-(2-(Dimethylamino)-7-fluoroquinolin-4-yl)cyclopropyl)-2-methyl-5-((1-methylazetidin-2-yl)methoxy)benzamide]
IC50 [2]: < 100 nM

C=Cc1cc(C2(NC(=O)c3cc(OC[C@@H]4CCN4)ccc3C)CC2)c2cccnc2c1 [Compound 612, (S)-5-(Azetidin-2-ylmethoxy)-2-methyl-N-(1-(7-vinylquinolin-5-yl)cyclopropyl)benzamide]
IC50 [1]: < 100 nM

C=C(C)c1cc(C2(NC(=O)c3cc(OC[C@@H]4CCN4)ccc3C)CC2)c2cccnc2c1 [Compound 613, (S)-5-(Azetidin-2-ylmethoxy)-2-methyl-N-(1-(7-(prop-1-en-2-yl)quinolin-5-yl)cyclopropyl)benzamide]
IC50 [1]: < 100 nM

C=Cc1cc(C2(NC(=O)c3cc(OCCNC)ccc3C)CC2)c2cccnc2c1 [Compound 615, 2-Methyl-5-(2-(methylamino)ethoxy)-N-(1-(7-vinylquinolin-5-yl)cyclopropyl)benzamide]
IC50 [1]: < 100 nM

C=C(C)c1cc(C2(NC(=O)c3cc(OCCNC)ccc3C)CC2)c2cccnc2c1 [Compound 616, 2-Methyl-5-(2-(methylamino)ethoxy)-N-(1-(7-(prop-1-en-2-yl)quinolin-5-yl)cyclopropyl)benzamide]
IC50 [1]: < 100 nM
